Source: patent US12178885B2, “Method for mediating targeted delivery of a composition to the brain of a subject in need thereof” (Fudan University, priority 2018, dated 2024)
Peptide text beside a SMILES is read from it.

Columns and labels:
[1] = tested on: orthotopic U87 glioma; test: anti-glioma efficacy: median survival time of orthotopic tumor model mice; assay type: in vivo, nude mice; details: tail vein, adriamycin 2 mg/kg per injection, days 7, 9, 11, 13, 15; saline group 27 days
Protocol: By injecting SP modified delivery system, unmodified polypeptide delivery system, free drug and normal saline into nude mice bearing orthotopic U87 glioma model via tail vein, the anti-tumor effect of SP modified delivery system in vivo is evaluated with the median survival time, apoptosis of tumor tissue and neovascularization density as indicators.
Establishment of glioma model in nude mice: Took U87 cells in logarithmic growth phase, digested and counted the cells, suspended them with appropriate amount of PBS buffer, inoculated 6×10^5 cells (dispersed in 5 μL PBS buffer) to each nude mouse. The nude mice was anesthetized with 7% chloral hydrate before the experiment, fixed with a brain stereotactic instrument, and inoculated the suspended cells to the striatum (i.e. 0.6 mm forward, 1.8 mm to the right, and 3 mm deep of the anterior fontanelle). Regularly observed the state of nude mice after operation.
Nude mice with orthotopic brain tumor model were randomly divided into 4 groups (n=13), and their body weight was recorded on the 7th, 9th, 11th, 13th and 15th day, respectively.

[2] = tested on: SP antibody; test: competition ELISA for binding of SP antibody to SP fixed on 96-well plate; details: without plasma incubation
Protocol: The specific operation was as follows: 0.1 μg SP-PEG-DSPE was added to each well of ELISA plate, left overnight at room temperature, washed with PBS for 3 times, sealed with 3% BSA for 1 h, and the BSA solution was sucked off Added SP antibody, incubated at 37° C. for 1 h, washed with PBS for three times, added liposome incubated with serum or PBS in advance and diluted in gradient, incubated at 37° C. for 1 h, washed with PBS for three times, added corresponding horseradish peroxidase labeled secondary antibody, reacted with TMB chromogenic solution for 3-15 min after 1 h, stopped the reaction with 2 M H2SO4, and measured its absorbance value at 450 nm wavelength.

[3] = tested on: neural cell line PC12; details: gradient concentration of SP co-cultured with PC12
Text: Safety evaluation: The gradient concentration of SP was co-cultured with nerve cell line PC12 to evaluate its cytotoxicity in vitro. At the same time, the heart, liver, spleen, lung and kidney tissues of mice in the pharmacodynamic test of orthotopic tumor were dissected and fixed in PBS solution of 4% paraformaldehyde, paraffin-embedded sections were made, stained with HE, observed and photographed under a microscope. the experimental results are shown in FIG. 10.

Q: How did the median survival time [1] turn out when `COc1cccc2c1C(=O)c1c(O)c3c(c(O)c1C2=O)C[C@@](O)(C(=O)CO)C[C@@H]3O[C@H]1C[C@H](N)[C@H](O)[C@H](C)O1` [DOX, adriamycin] was run?
A: 31 days

Q: For `CC[C@H](C)[C@H](NC(=O)[C@H](C)NC(=O)CNC(=O)[C@H](CCCCN)NC(=O)[C@H](CC(N)=O)NC(=O)[C@H](CO)NC(=O)CN)C(=O)N[C@H](C(=O)NCC(=O)N[C@@H](CC(C)C)C(=O)N[C@@H](CCSC)C(N)=O)[C@@H](C)CC` [SP] (H-GSNKGAIIGLM-NH2), which “competition for interaction between SP and antibody” value [2] is on record?
A: can compete for the interaction between SP and antibody

Q: And the cytotoxicity [3]?
A: did not show cytotoxicity
